# Like-named read-outs stand apart in the source and are kept apart here.
# How the values were obtained:
# SW-620 = assay: NCI DTP in-vitro dose response, Colon Cancer; format: cell-based
# HOP-62 = assay: cells; conditions: Homo sapiens; for GI50: HOP-62
# HCT-116 = assay: NCI DTP in-vitro dose response, Colon Cancer; format: cell-based
# ACHN = assay: NCI DTP in-vitro dose response, Renal Cancer; format: cell-based
# OVCAR-3 = assay: NCI DTP in-vitro dose response, Ovarian Cancer; format: cell-based
# MDA-MB-231/ATCC = assay: NCI DTP in-vitro dose response, Breast Cancer; format: cell-based
# SK-MEL-28 = assay: NCI DTP in-vitro dose response, Melanoma; format: cell-based
# MDA-MB-468 = assay: NCI DTP in-vitro dose response, Breast Cancer; format: cell-based
# SF-539 = assay: NCI DTP in-vitro dose response, CNS Cancer; format: cell-based
# DU-145 = conditions: for TGI: DU-145
# SF-295 = assay: NCI DTP in-vitro dose response, CNS Cancer; format: cell-based
# MALME-3M [1] = assay: NCI DTP in-vitro dose response, Melanoma; format: cell-based
# K-562 = conditions: for TGI: K-562
# UACC-257 = assay: NCI DTP in-vitro dose response, Melanoma; format: cell-based
# UO-31 = assay: NCI DTP in-vitro dose response, Renal Cancer; format: cell-based
# CAKI-1 = assay: NCI DTP in-vitro dose response, Renal Cancer; format: cell-based
# SK-OV-3 = assay: NCI DTP in-vitro dose response, Ovarian Cancer; format: cell-based
# U251 = assay: in vitro test at 1.0×10^−5 M, CNS cancer cell; format: cell-based; conditions: 1.0×10^−5 molal concentration (M)
# MALME-3M [2] = assay: in vitro test at 1.0×10^−5 M, Skin cancer cell; format: cell-based; conditions: 1.0×10^−5 molal concentration (M)
# MDA-MB-435 = assay: in vitro test at 1.0×10^−5 M, Breast cancer cell; format: cell-based; conditions: 1.0×10^−5 molal concentration (M)
# MCF7 = assay: in vitro test at 1.0×10^−5 M, Breast cancer cell; format: cell-based; conditions: 1.0×10^−5 molal concentration (M)
structure (smiles),measurement,setting,value
"O=C1c2ccccc2C(=O)c2c1ccc1nsnc21 [No. 22, Anthra[2,1-c][1,2,5]thiadiazole-6,11-dione]",GI50,"SW-620; Homo sapiens, SW-620",8.55 µM
same,CC50,"SW-620; Homo sapiens, SW-620, read-out: LC50",69.2 µM
same,Percent Growth,SW-620; Log10 Concentration −4.0,−68%
same,Percent Growth,SW-620; Log10 Concentration −5.0,46%
same,Percent Growth,SW-620; Log10 Concentration −6.0,107%
same,Percent Growth,SW-620; Log10 Concentration −7.0,103%
same,Percent Growth,SW-620; Log10 Concentration −8.0,106%
same,TGI,SW-620; SW-620,2.52E−5
same,GI50,HOP-62,3.59 µM
same,CC50,"HOP-62; HOP-62, read-out: LC50",> 100 µM
same,TGI,HCT-116; HCT-116,1.06E−5
same,GI50,"HCT-116; Homo sapiens, HCT-116",2.84 µM
same,CC50,"HCT-116; Homo sapiens, HCT-116, read-out: LC50",> 100 µM
same,Percent Growth,HCT-116; Log10 Concentration −4.0,−31%
same,Percent Growth,HCT-116; Log10 Concentration −5.0,1%
same,Percent Growth,HCT-116; Log10 Concentration −6.0,91%
same,Percent Growth,HCT-116; Log10 Concentration −7.0,97%
same,Percent Growth,HCT-116; Log10 Concentration −8.0,99%
same,TGI,ACHN; ACHN,3.33E−6
same,GI50,"ACHN; Homo sapiens, ACHN",1.71 µM
same,Percent Growth,ACHN; Log10 Concentration −4.0,−39%
same,Percent Growth,ACHN; Log10 Concentration −5.0,−82%
same,Percent Growth,ACHN; Log10 Concentration −6.0,90%
same,Percent Growth,ACHN; Log10 Concentration −7.0,114%
same,Percent Growth,ACHN; Log10 Concentration −8.0,107%
same,GI50,"OVCAR-3; Homo sapiens, OVCAR-3",2.06 µM
same,CC50,"OVCAR-3; Homo sapiens, OVCAR-3, read-out: LC50",28.2 µM
same,Percent Growth,OVCAR-3; Log10 Concentration −4.0,−75%
same,Percent Growth,OVCAR-3; Log10 Concentration −5.0,−29%
same,Percent Growth,OVCAR-3; Log10 Concentration −6.0,86%
same,Percent Growth,OVCAR-3; Log10 Concentration −7.0,110%
same,Percent Growth,OVCAR-3; Log10 Concentration −8.0,116%
same,TGI,OVCAR-3; OVCAR-3,5.59E−6
same,GI50,"MDA-MB-231/ATCC; Homo sapiens, MDA-MB-231",2.56 µM
same,CC50,"MDA-MB-231/ATCC; Homo sapiens, MDA-MB-231, read-out: LC50",> 100 µM
same,Percent Growth,MDA-MB-231/ATCC; Log10 Concentration −4.0,6%
same,Percent Growth,MDA-MB-231/ATCC; Log10 Concentration −5.0,4%
same,Percent Growth,MDA-MB-231/ATCC; Log10 Concentration −6.0,81%
same,Percent Growth,MDA-MB-231/ATCC; Log10 Concentration −7.0,87%
same,Percent Growth,MDA-MB-231/ATCC; Log10 Concentration −8.0,104%
same,TGI,MDA-MB-231/ATCC; MDA-MB-231/ATCC,>1.00E−4
same,GI50,"SK-MEL-28; Homo sapiens, SK-MEL-28",9.88 µM
same,CC50,"SK-MEL-28; Homo sapiens, SK-MEL-28, read-out: LC50",50.3 µM
same,Percent Growth,SK-MEL-28; Log10 Concentration −4.0,−93%
same,Percent Growth,SK-MEL-28; Log10 Concentration −5.0,50%
same,Percent Growth,SK-MEL-28; Log10 Concentration −6.0,107%
same,Percent Growth,SK-MEL-28; Log10 Concentration −7.0,106%
same,Percent Growth,SK-MEL-28; Log10 Concentration −8.0,103%
same,TGI,SK-MEL-28; SK-MEL-28,2.24E−5
same,GI50,"MDA-MB-468; Homo sapiens, MDA-MB-468",1.83 µM
same,CC50,"MDA-MB-468; Homo sapiens, MDA-MB-468, read-out: LC50",5.72 µM
same,Percent Growth,MDA-MB-468; Log10 Concentration −4.0,−99%
same,Percent Growth,MDA-MB-468; Log10 Concentration −5.0,−99%
same,Percent Growth,MDA-MB-468; Log10 Concentration −6.0,103%
same,Percent Growth,MDA-MB-468; Log10 Concentration −7.0,101%
same,Percent Growth,MDA-MB-468; Log10 Concentration −8.0,97%
same,TGI,MDA-MB-468; MDA-MB-468,3.24E−6
same,GI50,"SF-539; Homo sapiens, SF-539",1.52 µM
same,CC50,"SF-539; Homo sapiens, SF-539, read-out: LC50",5.38 µM
same,Percent Growth,SF-539; Log10 Concentration −4.0,−98%
same,Percent Growth,SF-539; Log10 Concentration −5.0,−99%
same,Percent Growth,SF-539; Log10 Concentration −6.0,83%
same,Percent Growth,SF-539; Log10 Concentration −7.0,84%
same,Percent Growth,SF-539; Log10 Concentration −8.0,90%
same,TGI,SF-539; SF-539,2.86E−6
same,TGI,DU-145,1.95E−5
same,Percent Growth,DU-145; Log10 Concentration −4.0,−100%
same,Percent Growth,DU-145; Log10 Concentration −5.0,41%
same,Percent Growth,DU-145; Log10 Concentration −6.0,110%
same,Percent Growth,DU-145; Log10 Concentration −7.0,114%
same,Percent Growth,DU-145; Log10 Concentration −8.0,110%
same,GI50,"SF-295; Homo sapiens, SF-295",3.08 µM
same,CC50,"SF-295; Homo sapiens, SF-295, read-out: LC50",93.9 µM
same,Percent Growth,SF-295; Log10 Concentration −4.0,−51%
same,Percent Growth,SF-295; Log10 Concentration −5.0,−3%
same,Percent Growth,SF-295; Log10 Concentration −6.0,100%
same,Percent Growth,SF-295; Log10 Concentration −7.0,105%
same,Percent Growth,SF-295; Log10 Concentration −8.0,102%
same,TGI,SF-295; SF-295,9.40E−6
same,GI50,"MALME-3M [1]; Homo sapiens, Malme-3M",2.37 µM
same,CC50,"MALME-3M [1]; Homo sapiens, Malme-3M, read-out: LC50",9.55 µM
same,Percent Growth,MALME-3M [1]; Log10 Concentration −4.0,−72%
same,Percent Growth,MALME-3M [1]; Log10 Concentration −5.0,−53%
same,Percent Growth,MALME-3M [1]; Log10 Concentration −6.0,112%
same,Percent Growth,MALME-3M [1]; Log10 Concentration −7.0,115%
same,Percent Growth,MALME-3M [1]; Log10 Concentration −8.0,102%
same,TGI,MALME-3M [1]; MALME-3M,4.76E−6
same,TGI,K-562,4.92E−5
same,Percent Growth,K-562; Log10 Concentration −4.0,−8%
same,Percent Growth,K-562; Log10 Concentration −5.0,19%
same,Percent Growth,K-562; Log10 Concentration −6.0,83%
same,Percent Growth,K-562; Log10 Concentration −7.0,96%
same,Percent Growth,K-562; Log10 Concentration −8.0,101%
same,GI50,"UACC-257; Homo sapiens, UACC-257",1.48 µM
same,CC50,"UACC-257; Homo sapiens, UACC-257, read-out: LC50",6.21 µM
same,Percent Growth,UACC-257; Log10 Concentration −4.0,−91%
same,Percent Growth,UACC-257; Log10 Concentration −5.0,−83%
same,Percent Growth,UACC-257; Log10 Concentration −6.0,77%
same,Percent Growth,UACC-257; Log10 Concentration −7.0,101%
same,Percent Growth,UACC-257; Log10 Concentration −8.0,96%
same,TGI,UACC-257; UACC-257,3.03E−6
same,GI50,"UO-31; Homo sapiens, UO-31",1.95 µM
same,CC50,"UO-31; Homo sapiens, UO-31, read-out: LC50",7.41 µM
same,Percent Growth,UO-31; Log10 Concentration −4.0,−66%
same,Percent Growth,UO-31; Log10 Concentration −5.0,−72%
same,Percent Growth,UO-31; Log10 Concentration −6.0,100%
same,Percent Growth,UO-31; Log10 Concentration −7.0,118%
same,Percent Growth,UO-31; Log10 Concentration −8.0,111%
same,TGI,UO-31; UO-31,3.81E−6
same,TGI,CAKI-1; CAKI-1,6.16E−6
same,GI50,"CAKI-1; Homo sapiens, CAKI-1",2.18 µM
same,CC50,"CAKI-1; Homo sapiens, CAKI-1, read-out: LC50",41.5 µM
same,Percent Growth,CAKI-1; Log10 Concentration −4.0,−66%
same,Percent Growth,CAKI-1; Log10 Concentration −5.0,−23%
same,Percent Growth,CAKI-1; Log10 Concentration −6.0,88%
same,Percent Growth,CAKI-1; Log10 Concentration −7.0,95%
same,Percent Growth,CAKI-1; Log10 Concentration −8.0,90%
same,GI50,"SK-OV-3; Homo sapiens, SK-OV-3",2.26 µM
same,CC50,"SK-OV-3; Homo sapiens, SK-OV-3, read-out: LC50",23.6 µM
same,Percent Growth,SK-OV-3; Log10 Concentration −4.0,−97%
same,Percent Growth,SK-OV-3; Log10 Concentration −5.0,−22%
same,Percent Growth,SK-OV-3; Log10 Concentration −6.0,89%
same,Percent Growth,SK-OV-3; Log10 Concentration −7.0,90%
same,Percent Growth,SK-OV-3; Log10 Concentration −8.0,102%
same,TGI,SK-OV-3; SK-OV-3,6.35E−6
"CCc1nc2ccc3c(c2[nH]1)C(=O)c1ccccc1C3=O [No. 4, 2-Ethyl-1(3)H-anthra[1,2-d]imidazole-6,11-dione]",GI50,HOP-62,44.2 µM
same,inhibition effect on cancer cell line (Table 2 value),U251,60.13
same,inhibition effect on cancer cell line (Table 2 value),MALME-3M [2],56.94
same,inhibition effect on cancer cell line (Table 2 value),MDA-MB-435,84.39
same,inhibition effect on cancer cell line (Table 2 value),MCF7,69.82
same,TGI,DU-145,>1.00E−4
same,Percent Growth,DU-145; Log10 Concentration −4.0,24%
same,Percent Growth,DU-145; Log10 Concentration −5.0,37%
same,Percent Growth,DU-145; Log10 Concentration −6.0,88%
same,Percent Growth,DU-145; Log10 Concentration −7.0,98%
same,Percent Growth,DU-145; Log10 Concentration −8.0,98%
same,TGI,K-562,>1.00E−4
same,Percent Growth,K-562; Log10 Concentration −4.0,48%
same,Percent Growth,K-562; Log10 Concentration −5.0,63%
same,Percent Growth,K-562; Log10 Concentration −6.0,87%
same,Percent Growth,K-562; Log10 Concentration −7.0,92%
same,Percent Growth,K-562; Log10 Concentration −8.0,94%
